Results as given in ChEMBL document CHEMBL3137361, “MMV Box P. falciparum screening”.

What follows are compounds tested on Plasmodium falciparum (assay: MMV: Growth inhibition of P. falciparum cultures was quantified using a parasite lactate dehydrogenase (LDH) assay. The cultures were diluted to 0.5% parasitemea and 2% hematocrit and subjected to each twofold serial dilutions of the compounds for 72 h (DMSO final concentration, 0.25%). After 72 h, the cultures were frozen. LDH activity of P. falciparum parasites in aliquots of freeze-thawed cultures was spectrophotometrically measured and the IC50s were determined.). Conditions: FCR3, 72 h.
Format: functional, organism-based

Compound | IC50 [nM]
O=C(Nc1ccc(Cl)c(Cl)c1)Nc1ccc(Cl)c(Cl)c1 | 2020
OC(CNCC1CCCO1)Cn1c2ccc(Cl)cc2c2cc(Cl)ccc21 (stereo not given) | 291
CCn1nc(-c2ccc(C(=O)OC)cc2)nc2c(=O)n(C)c(=O)nc1-2 | 1510
CC1(c2ccccc2)Nc2ccccc2-c2nc3ccccc3n21 (stereo not given) | 394
COc1cccc(C2(C)Nc3ccccc3-c3nc4ccccc4n32)c1 (stereo not given) | 388
CC(C)(C)CC(C)(C)NCC(O)COc1ccc(Cl)cc1Cl (stereo not given) | 544
Cc1ccc(Nc2nc(-c3ccccn3)cs2)cc1 | 1430
OC1=C2C(=Nc3ccccc3SC2c2ccccc2)c2ccccc21 (stereo not given) | 337
COCCNCC(O)Cn1c2ccc(Cl)cc2c2cc(Cl)ccc21 (stereo not given) | 277
FC(F)(F)c1cccc(Nc2nc3ccccc3nc2Nc2cccc(C(F)(F)F)c2)c1 | 1160
CCC(O)c1ccc(Br)cc1NC(=O)c1cccc(Cl)c1 (stereo not given) | 1330
O=c1nc(C=Cc2ccc(Br)cc2)oc2ccccc12 | > 5000
Brc1ccc(Nc2nc3ccccc3nc2Nc2ccc(Br)cc2)cc1 | 1560
FC(F)(F)c1cccc(Nc2nc(-c3ccccc3)nc3ncccc23)c1 | 905
COc1ccc(C=C2SC(=N)N(c3ccccc3OC)C2=O)cc1 | 287
Cc1cc(Nc2ccc(OCc3ccccc3)cc2)nc2cc(O)ccc12 | 127
OCCNc1nc(Nc2ccc(Cl)c(Cl)c2)nc2ccccc12 | 274
Cc1ccc(C)c(Cn2c(N3CCC(C(=O)NCc4cccs4)CC3)nc3ccccc32)c1 | 1810
O=C1c2ccccc2C2=Nc3ccccc3SC(c3cccc(F)c3)C12 (stereo not given) | 708
COc1ccccc1NC1=C(N2CCCCC2)C(=O)c2ccccc2C1=O | 50

Compound | IC50 [nM]
O=C(Nc1ccc(N2CCCCC2)c(Cl)c1)c1ccc(Br)o1 | 1090
OC(CNC1CCCCC1)Cn1c2ccc(I)cc2c2cc(I)ccc21 (stereo not given) | 137
O=C(Nc1cccc(C(F)(F)F)c1)c1cc(Cl)ccc1O | 3620
CCOc1cccc2sc(N(Cc3cccnc3)C(=O)C3CCCCC3)nc12 | > 5000
CCc1ccc(Nc2cc(C)c3ccc(O)cc3n2)cc1 | 76.7
COc1ccc(C(O)(CCC(C)C)C(CN2CCOCC2)c2ccc(Cl)cc2)cc1 (stereo not given) | > 5000
O=C(Nc1nc(-c2ccccn2)cs1)c1ccccc1Br | 2720
CSc1ccccc1C(=O)Nc1nc(-c2ccccn2)cs1 | 2160
CC(C)(C)c1ccc2c(c1)CN(Cc1ccc(Cl)cc1)CO2 | 35.5
CCCCC(O)(c1ccc(Cl)cc1)C(CN1CCOCC1)c1ccc(Cl)cc1 (stereo not given) | > 5000
O=c1nc(C=Cc2ccc(Cl)cc2)oc2ccccc12 | > 5000
c1ccc(CNc2nc(Nc3ccccc3)nc3ccccc23)cc1 | 430
COc1ccc(Nc2nc(NCc3ccccc3)c3ccccc3n2)cc1 | 204
Oc1c(CN2CCN(c3ccccc3F)CC2)cc(Br)c2cccnc12 | 771
OC(CNCc1ccccc1)Cn1c2ccccc2c2ccccc21 (stereo not given) | 717
CCCCCCC(O)(c1ccc(F)cc1)C(CN1CCOCC1)c1ccccc1 (stereo not given) | > 5000
COc1ccc(C(=O)C2CC2c2ccc(Cl)cc2)cc1 (stereo not given) | 2700
COc1ccc2sc(N(Cc3cccnc3)C(=O)c3ccc(C#N)cc3)nc2c1 | > 5000
O=C(NCC1Cc2cccc(-c3ccncc3)c2O1)c1csc2c1CCCC2 (stereo not given) | > 5000
CN(C)c1ccc(C(O)(c2ccc(N(C)C)cc2)c2ccc(N(C)C)cc2)cc1 [METHYLROSANILINE] | 47.3
